Assay results reported in ChEMBL document CHEMBL5260845, “Flavone-based arylamides as potential anticancers: Design, synthesis and in vitro cell-based/cell-free evaluations” (2020).
Values belong to the compound of their own block, whether it stands above or below them. Active and inactive are the calls of the source. The rule behind the calls is not given here.

Key:
[1] = target: Insulin receptor (Homo sapiens) (UniProt P06213); test: Inhibition of INSR (unknown origin) at 10 uM by biochemical hotspot kinase assay
[2] = target: Proto-oncogene tyrosine-protein kinase Src (Homo sapiens) (UniProt P12931); test: Inhibition of c-Src (unknown origin) at 10 uM by biochemical hotspot kinase assay
[3] = target: Mitogen-activated protein kinase kinase kinase 14 (Homo sapiens) (UniProt Q99558); test: Inhibition of MAP3K14 (unknown origin) at 10 uM by biochemical hotspot kinase assay relative to control
SNB-75 = test: Antiproliferative activity against human SNB-75 cells assessed as cell growth inhibition at 10 uM by SRB assay relative to control; format: functional
[4] = target: Glycogen synthase kinase-3 beta (Homo sapiens) (UniProt P49841); test: Inhibition of GSK3beta (unknown origin) at 10 uM by biochemical hotspot kinase assay relative to control
[5] = target: Mitogen-activated protein kinase 1 (Homo sapiens) (UniProt P28482); test: Inhibition of ERK2 (unknown origin) at 10 uM by biochemical hotspot kinase assay relative to control
[6] = target: Fibroblast growth factor receptor 2 (Homo sapiens) (UniProt P21802); test: Inhibition of FGFR2 (unknown origin) at 10 uM by biochemical hotspot kinase assay
[7] = target: Tyrosine-protein kinase ABL1 (Homo sapiens) (UniProt P00519); test: Inhibition of ABL1 (unknown origin) at 10 uM by biochemical hotspot kinase assay
[8] = target: Misshapen-like kinase 1 (Homo sapiens) (UniProt Q8N4C8); test: Inhibition of MINK (unknown origin) at 10 uM by biochemical hotspot kinase assay relative to control
[9] = target: TRAF2 and NCK-interacting protein kinase (Homo sapiens) (UniProt Q9UKE5); test: Inhibition of TNIK (unknown origin) at 10 uM by biochemical hotspot kinase assay relative to control
[10] = target: Proto-oncogene tyrosine-protein kinase receptor Ret (Homo sapiens) (UniProt P07949); test: Inhibition of RET (unknown origin) at 10 uM by biochemical hotspot kinase assay
[11] = target: Serine/threonine-protein kinase 3 (Homo sapiens) (UniProt Q13188); test: Inhibition of MST2 (unknown origin) at 10 uM by biochemical hotspot kinase assay relative to control
[12] = target: Ribosomal protein S6 kinase alpha-1 (Homo sapiens) (UniProt Q15418); test: Inhibition of RSK1 (unknown origin) at 10 uM by biochemical hotspot kinase assay
[13] = target: Receptor tyrosine-protein kinase erbB-4 (Homo sapiens) (UniProt Q15303); test: Inhibition of ERBB4 (unknown origin) at 10 uM by biochemical hotspot kinase assay relative to control
[14] = target: Ephrin type-B receptor 4 (Homo sapiens) (UniProt P54760); test: Inhibition of EPHB4 (unknown origin) at 10 uM by biochemical hotspot kinase assay
[15] = target: Serine/threonine-protein kinase ICK (Homo sapiens) (UniProt Q9UPZ9); test: Inhibition of LCK2 (unknown origin) at 10 uM by biochemical hotspot kinase assay
[16] = target: Receptor-interacting serine/threonine-protein kinase 2 (Homo sapiens) (UniProt O43353); test: Inhibition of RIPK2 (unknown origin) at 10 uM by biochemical hotspot kinase assay relative to control
[17] = target: High affinity nerve growth factor receptor (Homo sapiens) (UniProt P04629); test: Inhibition of TrkA (unknown origin) at 10 uM by biochemical hotspot kinase assay
[18] = target: RAF proto-oncogene serine/threonine-protein kinase (Homo sapiens) (UniProt P04049); test: Inhibition of c-RAF (unknown origin) at 10 uM by biochemical hotspot kinase assay relative to control
[19] = target: Rho-associated protein kinase 1 (Homo sapiens) (UniProt Q13464); test: Inhibition of ROCK1 (unknown origin) at 10 uM by biochemical hotspot kinase assay
[20] = target: Serine/threonine-protein kinase B-raf (Homo sapiens) (UniProt P15056); test: Inhibition of B-RAF (unknown origin) at 10 uM by biochemical hotspot kinase assay relative to control
[21] = target: Interleukin-1 receptor-associated kinase 4 (Homo sapiens) (UniProt Q9NWZ3); test: Inhibition of IRAK4 (unknown origin) at 10 uM by biochemical hotspot kinase assay
HT-29 [22] = test: Induction of cell cycle arrest in human HT-29 cells assessed as reduction in accumulation of cells at S phase at 2.5 to 10 uM incubated for 24 hrs by PI staining based analysis; format: functional; conditions: dose 2.5-10 µM
HT-29 [23] = test: Induction of cell cycle arrest in human HT-29 cells assessed as accumulation of cells at G1 phase at 10 uM incubated for 24 hrs by PI staining based analysis (reference value: 40.3%); format: functional
[24] = target: Tyrosine-protein kinase SYK (Homo sapiens) (UniProt P43405); test: Inhibition of SYK (unknown origin) at 10 uM by biochemical hotspot kinase assay relative to control
[25] = target: Fibroblast growth factor receptor 1 (Homo sapiens) (UniProt P11362); test: Inhibition of FGFR1 (unknown origin) at 10 uM by biochemical hotspot kinase assay relative to control
[26] = target: Tyrosine-protein kinase Lyn (Homo sapiens) (UniProt P07948); test: Inhibition of LYN (unknown origin) at 10 uM by biochemical hotspot kinase assay
[27] = target: Phosphorylase b kinase gamma catalytic chain, liver/testis isoform (Homo sapiens) (UniProt P15735); test: Inhibition of PHKG2 (unknown origin) at 10 uM by biochemical hotspot kinase assay relative to control
[28] = target: CDK1/Cyclin E (Homo sapiens) (UniProt P06493+P24864); test: Inhibition of CDK1/cyclin E (unknown origin) at 10 uM by biochemical hotspot kinase assay; format: protein-complex assay
[29] = target: Mitogen-activated protein kinase kinase kinase 7 (Homo sapiens) (UniProt O43318); test: Inhibition of TAK1 (unknown origin) at 10 uM by biochemical hotspot kinase assay relative to control
[30] = target: Serine/threonine-protein kinase Chk1 (Homo sapiens) (UniProt O14757); test: Inhibition of CHK1 (unknown origin) at 10 uM by biochemical hotspot kinase assay
[31] = target: Tyrosine-protein kinase JAK3 (Homo sapiens) (UniProt P52333); test: Inhibition of JAK3 (unknown origin) at 10 uM by biochemical hotspot kinase assay
HT-29 [32] = test: Induction of cell cycle arrest in human HT-29 cells assessed as accumulation of cells at G1 phase at 5 uM incubated for 24 hrs by PI staining based analysis (reference value: 40.3%); format: functional
[33] = target: Serine/threonine-protein kinase PAK 2 (Homo sapiens) (UniProt Q13177); test: Inhibition of PAK2 (unknown origin) at 10 uM by biochemical hotspot kinase assay
MCF7 = test: Antiproliferative activity against estrogen receptor positive human MCF7 cells assessed as inhibition of cell growth at 10 uM by SRB assay; format: functional, cell-based
NCI-H460 = test: Antiproliferative activity against human NCI-H460 cells assessed as cell growth inhibition at 10 uM by SRB assay relative to control; format: functional
TK-10 = test: Antiproliferative activity against human TK-10 cells assessed as inhibition of cell growth at 10 uM by SRB assay relative to control; format: functional

Chain of Misshapen-like kinase 1 (Homo sapiens) (Q8N4C8 whole entry, looked up): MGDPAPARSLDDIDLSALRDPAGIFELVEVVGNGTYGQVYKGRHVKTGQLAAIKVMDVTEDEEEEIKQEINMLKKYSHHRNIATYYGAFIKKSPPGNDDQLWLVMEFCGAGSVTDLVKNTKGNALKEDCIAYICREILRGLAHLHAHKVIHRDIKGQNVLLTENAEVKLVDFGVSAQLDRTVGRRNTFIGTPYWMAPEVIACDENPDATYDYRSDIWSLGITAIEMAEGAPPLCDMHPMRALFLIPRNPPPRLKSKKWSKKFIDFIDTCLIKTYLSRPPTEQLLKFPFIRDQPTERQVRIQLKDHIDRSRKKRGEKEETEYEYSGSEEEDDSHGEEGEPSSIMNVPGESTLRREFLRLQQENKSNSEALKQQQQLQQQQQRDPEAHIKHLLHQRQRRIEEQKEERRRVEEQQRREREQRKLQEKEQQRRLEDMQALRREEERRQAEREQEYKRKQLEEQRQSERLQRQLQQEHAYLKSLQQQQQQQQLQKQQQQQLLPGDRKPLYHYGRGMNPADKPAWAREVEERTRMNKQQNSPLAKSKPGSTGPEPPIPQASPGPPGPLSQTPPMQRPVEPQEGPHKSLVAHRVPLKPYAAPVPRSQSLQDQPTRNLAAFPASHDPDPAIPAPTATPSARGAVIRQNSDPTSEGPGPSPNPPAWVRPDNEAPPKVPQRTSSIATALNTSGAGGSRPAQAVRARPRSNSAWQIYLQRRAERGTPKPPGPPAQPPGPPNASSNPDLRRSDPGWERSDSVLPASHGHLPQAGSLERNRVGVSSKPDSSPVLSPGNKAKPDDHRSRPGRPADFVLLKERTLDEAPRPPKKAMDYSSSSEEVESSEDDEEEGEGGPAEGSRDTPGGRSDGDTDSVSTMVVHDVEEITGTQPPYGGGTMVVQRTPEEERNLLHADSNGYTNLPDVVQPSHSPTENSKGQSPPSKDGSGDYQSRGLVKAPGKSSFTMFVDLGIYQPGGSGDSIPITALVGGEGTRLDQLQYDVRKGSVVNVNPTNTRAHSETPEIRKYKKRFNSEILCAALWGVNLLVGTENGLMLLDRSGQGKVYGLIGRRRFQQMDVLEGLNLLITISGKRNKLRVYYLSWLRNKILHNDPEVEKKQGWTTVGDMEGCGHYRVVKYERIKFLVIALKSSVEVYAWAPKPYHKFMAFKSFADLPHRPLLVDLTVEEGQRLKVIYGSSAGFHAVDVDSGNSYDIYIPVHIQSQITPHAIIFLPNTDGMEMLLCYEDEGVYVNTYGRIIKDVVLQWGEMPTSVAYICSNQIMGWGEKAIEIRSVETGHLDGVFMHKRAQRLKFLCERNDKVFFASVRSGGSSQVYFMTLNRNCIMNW
Chain of Receptor-interacting serine/threonine-protein kinase 2 (Homo sapiens) (O43353 whole entry): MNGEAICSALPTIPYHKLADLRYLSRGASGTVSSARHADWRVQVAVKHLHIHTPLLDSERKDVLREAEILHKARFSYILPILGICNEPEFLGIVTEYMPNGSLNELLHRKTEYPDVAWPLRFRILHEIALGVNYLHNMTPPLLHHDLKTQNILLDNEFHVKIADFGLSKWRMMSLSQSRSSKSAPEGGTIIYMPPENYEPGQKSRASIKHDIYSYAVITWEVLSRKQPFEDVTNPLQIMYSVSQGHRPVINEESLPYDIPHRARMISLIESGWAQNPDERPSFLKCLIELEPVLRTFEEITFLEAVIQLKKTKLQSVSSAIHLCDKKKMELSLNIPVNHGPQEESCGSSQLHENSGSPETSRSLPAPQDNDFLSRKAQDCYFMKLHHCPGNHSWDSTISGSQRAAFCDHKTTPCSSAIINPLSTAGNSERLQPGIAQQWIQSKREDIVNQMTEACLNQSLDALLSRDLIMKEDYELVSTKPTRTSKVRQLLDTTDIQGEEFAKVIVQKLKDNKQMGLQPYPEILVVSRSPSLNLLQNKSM
Chain of Insulin receptor (Homo sapiens) (P06213 28-758 limits assumed): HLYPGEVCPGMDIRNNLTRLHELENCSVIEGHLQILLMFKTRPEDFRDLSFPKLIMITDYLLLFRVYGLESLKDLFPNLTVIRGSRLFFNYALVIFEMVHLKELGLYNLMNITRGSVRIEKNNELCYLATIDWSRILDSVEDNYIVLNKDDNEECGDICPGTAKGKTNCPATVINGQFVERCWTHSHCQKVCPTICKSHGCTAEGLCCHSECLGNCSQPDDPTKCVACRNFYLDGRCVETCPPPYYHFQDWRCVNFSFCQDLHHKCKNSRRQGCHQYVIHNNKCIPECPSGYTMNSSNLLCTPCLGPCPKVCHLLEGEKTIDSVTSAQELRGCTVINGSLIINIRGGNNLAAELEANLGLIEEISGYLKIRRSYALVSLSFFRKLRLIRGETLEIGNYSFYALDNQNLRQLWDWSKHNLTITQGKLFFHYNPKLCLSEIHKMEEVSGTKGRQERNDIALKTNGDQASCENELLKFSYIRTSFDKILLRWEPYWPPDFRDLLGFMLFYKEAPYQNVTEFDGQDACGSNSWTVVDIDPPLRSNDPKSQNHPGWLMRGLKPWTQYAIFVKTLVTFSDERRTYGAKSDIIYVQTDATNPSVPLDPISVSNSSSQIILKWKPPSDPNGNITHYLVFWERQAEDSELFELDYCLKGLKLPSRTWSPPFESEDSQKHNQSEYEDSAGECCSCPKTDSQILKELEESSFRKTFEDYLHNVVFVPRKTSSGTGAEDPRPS
Chain of Insulin receptor (Homo sapiens) (P06213 763-1382 limits assumed): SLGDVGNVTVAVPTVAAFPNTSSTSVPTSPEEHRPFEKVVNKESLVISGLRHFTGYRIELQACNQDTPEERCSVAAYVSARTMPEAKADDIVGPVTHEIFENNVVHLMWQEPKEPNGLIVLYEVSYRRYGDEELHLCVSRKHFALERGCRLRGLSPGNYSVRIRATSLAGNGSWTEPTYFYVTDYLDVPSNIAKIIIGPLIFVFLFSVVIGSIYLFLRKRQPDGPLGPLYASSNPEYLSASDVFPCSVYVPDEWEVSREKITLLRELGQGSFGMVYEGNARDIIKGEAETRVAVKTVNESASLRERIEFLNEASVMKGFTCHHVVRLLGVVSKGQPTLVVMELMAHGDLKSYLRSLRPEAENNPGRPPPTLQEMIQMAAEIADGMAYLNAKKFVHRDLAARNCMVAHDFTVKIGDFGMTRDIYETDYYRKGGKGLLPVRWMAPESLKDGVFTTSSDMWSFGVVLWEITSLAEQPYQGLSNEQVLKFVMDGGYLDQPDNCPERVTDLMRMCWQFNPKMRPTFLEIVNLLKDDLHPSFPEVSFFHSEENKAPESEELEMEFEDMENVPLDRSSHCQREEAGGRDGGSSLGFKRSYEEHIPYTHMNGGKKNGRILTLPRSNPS
Chain of Tyrosine-protein kinase Lyn (Homo sapiens) (P07948 2-512 limits assumed): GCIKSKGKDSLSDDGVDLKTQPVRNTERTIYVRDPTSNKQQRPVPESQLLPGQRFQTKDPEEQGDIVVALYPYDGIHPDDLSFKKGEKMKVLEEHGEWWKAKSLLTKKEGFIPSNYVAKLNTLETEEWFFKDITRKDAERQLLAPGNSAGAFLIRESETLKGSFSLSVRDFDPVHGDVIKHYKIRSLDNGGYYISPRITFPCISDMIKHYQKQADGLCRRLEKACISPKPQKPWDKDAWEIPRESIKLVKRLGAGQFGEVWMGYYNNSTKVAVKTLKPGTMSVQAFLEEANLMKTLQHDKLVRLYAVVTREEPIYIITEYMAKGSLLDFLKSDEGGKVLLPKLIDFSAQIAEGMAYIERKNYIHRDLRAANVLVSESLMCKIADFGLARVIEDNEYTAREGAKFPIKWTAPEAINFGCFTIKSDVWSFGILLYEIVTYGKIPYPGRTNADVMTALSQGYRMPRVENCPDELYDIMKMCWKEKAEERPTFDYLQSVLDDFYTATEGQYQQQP
Chain of Serine/threonine-protein kinase 3 (Homo sapiens) (Q13188 whole entry): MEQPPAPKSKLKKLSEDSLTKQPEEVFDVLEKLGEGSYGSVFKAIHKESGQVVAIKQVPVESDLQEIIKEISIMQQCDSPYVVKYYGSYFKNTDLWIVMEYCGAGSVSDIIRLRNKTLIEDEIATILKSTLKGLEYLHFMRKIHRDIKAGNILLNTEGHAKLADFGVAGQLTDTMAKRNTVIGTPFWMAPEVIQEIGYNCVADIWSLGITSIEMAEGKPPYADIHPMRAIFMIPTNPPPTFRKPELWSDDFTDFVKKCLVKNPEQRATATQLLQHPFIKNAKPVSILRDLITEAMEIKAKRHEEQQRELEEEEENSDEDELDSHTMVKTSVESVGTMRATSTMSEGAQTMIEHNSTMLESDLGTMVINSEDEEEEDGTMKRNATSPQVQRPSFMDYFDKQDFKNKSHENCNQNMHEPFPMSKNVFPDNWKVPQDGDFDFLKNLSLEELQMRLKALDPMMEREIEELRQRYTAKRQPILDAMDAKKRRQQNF
Chain of Proto-oncogene tyrosine-protein kinase Src (Homo sapiens) (P12931 2-536 limits assumed): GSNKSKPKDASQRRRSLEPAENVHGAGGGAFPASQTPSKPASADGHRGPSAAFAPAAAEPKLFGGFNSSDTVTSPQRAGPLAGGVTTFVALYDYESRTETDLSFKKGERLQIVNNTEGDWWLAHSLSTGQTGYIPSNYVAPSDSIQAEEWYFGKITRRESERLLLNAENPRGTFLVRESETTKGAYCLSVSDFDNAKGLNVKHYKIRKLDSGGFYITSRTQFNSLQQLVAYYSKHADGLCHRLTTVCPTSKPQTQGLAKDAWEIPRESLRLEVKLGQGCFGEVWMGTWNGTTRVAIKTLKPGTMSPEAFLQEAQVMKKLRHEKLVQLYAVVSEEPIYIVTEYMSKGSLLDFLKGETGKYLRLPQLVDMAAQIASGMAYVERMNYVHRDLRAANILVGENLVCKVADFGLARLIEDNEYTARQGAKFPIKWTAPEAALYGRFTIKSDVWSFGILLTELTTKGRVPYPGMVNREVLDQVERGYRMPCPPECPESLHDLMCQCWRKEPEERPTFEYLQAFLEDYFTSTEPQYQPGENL

inhibition [1]: inactive
inhibition [2]: inactive
inhibition [3]: 20.9%
inhibition [4]: 1.03%
inhibition [5]: 17.2%
inhibition [6]: inactive
inhibition [7]: inactive
inhibition [8]: 41%
inhibition [9]: 46.1%
inhibition [10]: inactive
inhibition [11]: 14.2%
inhibition [12]: inactive
inhibition [13]: 16%
inhibition [14]: inactive
inhibition [15]: inactive
inhibition [16]: 36.1%
inhibition [17]: inactive
inhibition [18]: 3.26%
inhibition [19]: inactive
inhibition [20]: 34.3%
inhibition [21]: inactive
inhibition [24]: 1.17%
inhibition [25]: 16.5%
inhibition [26]: inactive
inhibition [27]: 8.33%
inhibition [28]: inactive
inhibition [29]: 7.06%
inhibition [30]: inactive
inhibition [31]: inactive
inhibition [33]: inactive
SMILES: COc1cc2oc(-c3cccc(C(=O)Nc4ccc(C)cc4)c3)cc(=O)c2c(OC)c1OC
inhibition at 10 µM (SNB-75): > 50%
Activity (HT-29 [22]): Active
Activity (HT-29 [23]): 64%
Activity (HT-29 [32]): 59.1%

SMILES: COc1cc2oc(-c3cccc(C(=O)Nc4ccc(Cl)cc4)c3)cc(=O)c2c(OC)c1OC
inhibition (MCF7): Active
inhibition at 10 µM (NCI-H460): 74.8%
inhibition at 10 µM (TK-10): 61.4%
